From publication PMC11973503 (2024) come the findings set out here.

What is called ΔTm is the shift of the melting midpoint relative to a reference.

Experiment [1] concerns Poly rA ⋅ Poly rU (RNA, polymer) A/U. Briefly: thermal melting. The settings on record: 100 mM KCl, derived from two Tm, 10 mM HEPES, 0.4 mM EDTA, ligand 1:10 per base pair.
For experiment [2], the system named is Seq 4 (GCGGGGGC)2 (DNA, duplex) GCGGGGGC/GCCCCCGC
In words: fluorescence increase (ΔF), plate reader. The following applies: 50 mM NaCl; 10 mM sodium cacodylate, 0.5 mM EDTA, pH 6.0; 1 µM duplex, 1:1 ligand.

The test system of experiment [3] is Seq 5 dsDNA (5'-GCGCCCGC) (DNA, duplex) GCGCCCGC/GCGGGCGC
Briefly: thermal melting. The following applies: 100 mM KCl; 10 mM HEPES pH not given, 0.4 mM EDTA; 5 µM duplex; ligand 1:10 per base pair.

The test system of experiment [4] is HTG DNA (human telomeric G-quadruplex), d[AG3(T2AG3)3] (DNA, G4) AGGGTTAGGGTTAGGGTTAGGG
In words: thermal melting. The settings on record: 100 mM KCl; derived from two Tm; 10 mM HEPES, 0.4 mM EDTA; 5 µM DNA; ligand to HTG 2.2:1.

In experiment [5] the test system is Seq 6 dsDNA (5'-CTTCGATAGTG) (DNA, duplex) CTTCGATAGTG/CACTATCGAAG
In words: thermal melting. The following applies: 100 mM KCl; derived from two Tm; 10 mM HEPES, 0.4 mM EDTA; ligand 1:10 per base pair.

Experiment [6] has as its system Seq 2 (CCCCGGGG)2 (DNA, duplex) CCCCGGGG
Briefly: fluorescence increase (ΔF), plate reader. The settings on record: 50 mM NaCl; 10 mM sodium cacodylate, 0.5 mM EDTA, pH 6.0; 1 µM duplex, 1:1 ligand.

Experiment [7] relates to Seq 5 dsRNA (RNA, duplex) GCGCCCGC/GCGGGCGC
Briefly: thermal melting. The following applies: 100 mM KCl; 10 mM HEPES pH not given, 0.4 mM EDTA; 5 µM duplex; ligand 1:10 per base pair.

The test system of experiment [8] is Poly dA ⋅ Poly dT (DNA, polymer) A/T. Briefly: thermal melting. The following applies: 100 mM KCl, derived from two Tm, 10 mM HEPES, 0.4 mM EDTA, ligand 1:10 per base pair.
The subject of experiment [9] is Seq 1 (GGGGCCCC)2 (DNA, duplex) GGGGCCCC
In words: fluorescence increase (ΔF), plate reader. The settings on record: 50 mM NaCl; 10 mM sodium cacodylate, 0.5 mM EDTA, pH 6.0; 1 µM duplex, 1:1 ligand.

Experiment [10] relates to Seq 3 (GGGGCGGG)2 (DNA, duplex) GGGGCGGG/CCCGCCCC
In words: fluorescence increase (ΔF), plate reader. The following applies: 50 mM NaCl; 10 mM sodium cacodylate, 0.5 mM EDTA, pH 6.0; 1 µM duplex, 1:1 ligand.

Experiment [11] deals with Seq 6 dsDNA (5'-CTTCGATAGTG) (DNA, duplex) CTTCGATAGTG/CACTATCGAAG
In words: fluorescence quantum yield titration. The following applies: 100 mM KCl; 10 mM HEPES pH 7, 0.4 mM EDTA, 25 °C.

Experiment [12] has as its system Poly dA ⋅ Poly dT (DNA, polymer) A/T. In words: thermal melting. The settings on record: 100 mM KCl; 10 mM HEPES, 0.4 mM EDTA; 5 μM duplex, ligand 1:10 per base pair; Tm without ligand 72±1.0.
Experiment [13] relates to HTG DNA (DNA, G4) AGGGTTAGGGTTAGGGTTAGGG
In words: thermal melting. The following applies: 100 mM KCl; 10 mM HEPES, 0.4 mM EDTA; ligand to HTG 2.2:1; Tm without ligand 57±1.9.

Experiment [14] concerns Poly rA ⋅ Poly rU (RNA, polymer) A/U. In words: thermal melting. The settings on record: 100 mM KCl; 10 mM HEPES, 0.4 mM EDTA; 5 μM duplex, ligand 1:10 per base pair; Tm without ligand 58±0.4.
For experiment [15], the system named is Seq 6 dsDNA (DNA, duplex) CTTCGATAGTG/CACTATCGAAG
Briefly: thermal melting. The settings on record: 100 mM KCl; 10 mM HEPES, 0.4 mM EDTA; 5 μM duplex, ligand 1:10 per base pair; Tm without ligand 45±1.1.

Experiment [16] deals with Seq 5 dsDNA (DNA, duplex) GCGCCCGC/GCGGGCGC
Briefly: thermal melting. The settings on record: 100 mM KCl; 10 mM HEPES, 0.4 mM EDTA; 5 μM duplex, ligand 1:10 per base pair; Tm without ligand 54±0.7.

As to `CN1C(=Cc2cc[n+](CCCCC(=O)NC[C@H]3O[C@@H](O[C@@H]4[C@@H](O)[C@H](N)C[C@H](N)[C@H]4O[C@H]4O[C@H](CN)[C@@H](O)[C@H](O)[C@H]4N)[C@H](O)[C@@H]3O[C@H]3O[C@@H](CN)[C@@H](O)[C@H](O)[C@H]3N)c3ccccc23)Sc2ccccc21`, the ΔTm worked out at 13 °C in [1], 8 °C in [4], 9 °C in [5] and 0 °C in experiment [8]. The binding result in [2], in [6], in experiment [9] and in experiment [10] was “yes” throughout. Besides, the Tm increase in experiment [3] is 13.8 °C; in [7], 9.7 °C.
With `CN1C(=Cc2cc[n+](CCCCC(=O)NCCSC[C@H]3O[C@@H](O[C@@H]4[C@@H](O)[C@H](N)C[C@H](N)[C@H]4O[C@H]4O[C@H](CN)[C@@H](O)[C@H](O)[C@H]4N)[C@H](O)[C@@H]3O[C@H]3O[C@@H](CN)[C@@H](O)[C@H](O)[C@H]3N)c3ccccc23)Sc2ccccc21`, the ΔTm amounted to 21 °C in [1], 10 °C in [4], 13 °C in experiment [5] and 1 °C in [8]. Also, the binding result in [2], in [6], in [9] and in experiment [10] was “yes” each time. The Tm increase was found to be 10.8 °C in [3] and 11 °C in [7].
For the compound `CN1C(=Cc2cc[n+](C)c3ccccc23)Sc2ccccc21`, the binding result in experiment [11] is on record as “yes”. Besides, the Tm in experiment [12] was determined as 73±0.3 °C; in experiment [13] it was 61±1.2 °C; in experiment [14] it was 58±1.1 °C; in experiment [15] it was 52±1.0 °C; in experiment [16], 54±1.6 °C.
